Source: the METLIN SMRT retention time set (Domingo-Almenara et al. 2019)

Assay: gradient 5% acetonitrile 3 min, to 50% in 2 min, to 85% in 15 min, held 3 min, 100 µL/min
Conditions: column: Zorbax Extend-C18 2.1 x 50 mm; eluents: water / acetonitrile, 0.1% formic acid
Outline: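 Using water and acetonitrile that each contained 0.1% formic acid, mixtures of ~100 pure standards were separated at 100 μL/min on a Zorbax Extend-C18 column (2.1 × 50 mm, 1.8 μm). The HPLC fed a quadrupole time-of-flight mass spectrometer working in positive and negative ionization mode, with dead and dwell volumes of 40 μL and 900 μL. Data were acquired over 3 months. Retention time was read from computationally picked adduct peaks after manual inspection of each.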

SMILES | RP-LC retention time
Cc1ccc(CNS(=O)(=O)c2cc(-c3nc(C)c(C)s3)cs2)cc1 | 1040 s
COc1ccccc1Nc1c(-c2ccc(N(C)C)cc2)nc2cnccn12 | 833 s
COc1cccc(CNC(=O)Nc2c(-c3cccc(C)c3)nc3ccccn23)c1 | 673 s
COc1ccc(C2c3c(oc4cc(C)c(C)cc4c3=O)C(=O)N2CCCN2CCOCC2)cc1OC (centres undefined) | 766 s
CCNC(=O)C1CCCN(c2nc3ncn(CC(=O)NCc4ccc(Cl)cc4)c(=O)c3s2)C1 (centres undefined) | 696 s
CCSc1nc2ccc(NS(=O)(=O)c3ccc4c(c3)OCCO4)cc2s1 | 987 s
Cc1ccc(-n2ncc3c(=O)n(Cc4nc(-c5ccccc5)no4)cnc32)cc1Cl | 1190 s
Cc1cc(NC(=O)CCCS(=O)(=O)c2ccc(Cl)cc2)n(C)n1 | 648 s
Cc1c(CNCc2ccco2)c(C(=O)O)c(C)n1Cc1cccc(Cl)c1 | 702 s
O=C1C(OC2CCN(S(=O)(=O)c3ccc(C(F)(F)F)cc3)CC2)CCN1CC1CC1 (centres undefined) | 925 s
CCc1nc(-c2csc(S(=O)(=O)N3CCCC(C(=O)Nc4ccc(C)cc4)C3)c2)no1 (centres undefined) | 901 s
Cc1ccsc1C(=O)N1CCC2(CC1)CC(OCC1CC1)CCO2 (centres undefined) | 851 s
CCN1C=C(C(=O)OCc2cc(F)cc(F)c2)C(C)=NS1(=O)=O | 926 s
Cc1ccc(S(=O)(=O)N2CC(=O)N(c3ccccc3F)C(C)(C(=O)NCCC(C)C)C2)cc1 (centres undefined) | 1020 s
O=C1CCc2cc(S(=O)(=O)NCc3ccco3)cc3c2N1CCC3 | 677 s
CCCc1nc(-c2c(C)cc(C)nc2NC(=O)C2CCCCC2)no1 | 876 s
Cc1cc(CNC(=O)c2cc3ccccc3o2)c(C)o1 | 852 s
O=C(Cc1cccs1)N1CCc2[nH]nc(-c3ccccc3)c2C1 | 839 s
COC(=O)c1ccc2c(=O)n(Cc3ccc(OC)cc3)c(N3CCOCC3)nc2c1 | 943 s
COc1ccc(-c2nc(Cn3ccnc3)no2)cc1 | 599 s
CCN1c2ccc(C)cc2C(=O)NC12CCN(C(=O)c1ccc(Br)cc1)CC2 | 902 s
CC(=O)Nc1cc(C(=O)NCc2ccc(OC(C)C)cc2)c2ccc(C)nc2c1 | 640 s
COc1cccc(-c2cc(C3CCN(C(=O)NC4CCCC4)CC3)[nH]n2)c1 | 790 s

SMILES | RP-LC retention time
Cc1nc(-c2ccccc2)sc1CC(=O)NCCC1=CCCCC1 | 947 s
Cc1ccc(-n2nc(CO)c(C(=O)NC3CCCC3)n2)cc1C | 1090 s
CCOc1ccc(CNC(=O)C2CCCN(c3ccc(=O)n(-c4ccc(CC)cc4)n3)C2)cc1 (centres undefined) | 940 s
CC(NC(=O)c1ccc(-c2ccsc2)nc1)c1ccc(F)cc1 (centres undefined) | 908 s
CCc1cc(C(=O)NCCN2CCOCC2)nc2cc(-c3ccccn3)nn12 | 592 s
Cc1cccn2c(=O)c(-c3nn[nH]n3)cnc12 | 646 s
COc1cc(CCC(=O)N2C[C@@H](C(N)=O)[C@H](c3nc(C)no3)C2)on1 | 600 s
CC1(C(=O)NCc2ccccc2)CN(S(=O)(=O)c2ccccc2)CC(=O)N1C1CCCC1 (centres undefined) | 787 s
Cc1ccc(NC(=O)C2CCCN(S(=O)(=O)c3c[nH]c(C(=O)N4CCCC4)c3)C2)cc1Cl (centres undefined) | 852 s
CCOC(=O)c1noc2nc(C)nc(NCc3ccc(Cl)cc3)c12 | 1160 s
CC(C)n1cnc(S(=O)(=O)N2CCC(C(=O)Nc3ccc(Br)cc3F)CC2)c1 | 834 s
CCc1nc(-n2cccc2)sc1C(=O)Nc1ccc(OC)c(OC)c1 | 965 s
COc1ccc(C2(C(=O)N3CCCC3c3nc(-c4ccccc4Cl)no3)CC2)cc1 (centres undefined) | 1070 s
O=C(NC1CCCN(c2cc(-c3ccncc3)[nH]n2)C1)c1ccc2c(c1)OCO2 (centres undefined) | 603 s
O=c1ccc(S(=O)(=O)N2CCCC2)cn1Cc1ccccc1 | 602 s
Cc1ccc(-c2noc(-c3nn(CC(=O)NC4CCC(C)CC4)c4ccccc34)n2)cc1 (centres undefined) | 1300 s
CC(C)OCCCNC(=O)c1cc2c(n(-c3ccc(F)cc3)c1=O)CCCC2=O | 794 s
O=C(O)c1cnn2c(C(F)(F)F)cc(-c3ccc(F)cc3)nc12 | 823 s
CNCC[C@@H](Oc1ccccc1C)c1ccccc1 | 728 s
CCOC(=O)c1cccc(NC(=O)Cn2ccc3ccc(-c4nnc(C)o4)cc32)c1 | 829 s
Cc1ccc(-c2nc(-c3ccc4nncn4c3)no2)cc1 | 870 s
N#CCCN1CCN(c2ccc(NC(=O)C3CC3)c(C(=O)O)c2)CC1 | 579 s
Cc1ccc2c(c1)N(S(C)(=O)=O)CCC(C(=O)Nc1cccc(OC(C)C)c1)O2 (centres undefined) | 893 s

SMILES | RP-LC retention time
O=C(Nc1ccccc1)C1CCCN(S(=O)(=O)c2cc(-c3noc(C4CCCC4)n3)cs2)C1 (centres undefined) | 1220 s
Cc1cc(C)c(S(=O)(=O)Nc2ccc(Cn3cncn3)cc2)cc1C | 762 s
COc1cc(OC)c(NC(=O)Cn2nc3cc(C)nc(-c4ccc(F)cc4)n3c2=O)cc1Cl | 899 s
CCC1CCCCN1C(=O)c1cnc2nc(C)ccc2c1Nc1ccc(C)c(F)c1 (centres undefined) | 716 s
COc1ccc(-c2nc(C)cc(C)c2CNS(=O)(=O)c2cccc(F)c2)cc1 | 657 s
O=C(Nc1ccccc1)C1CCc2nc(N3CCN(C(=O)C4CCC4)CC3)sc2C1 (centres undefined) | 608 s
COc1ccc(N2CCN(c3ncccc3-c3nc(C)no3)CC2)cc1 | 736 s
COc1ccccc1CNC(=O)C1CCCN1S(=O)(=O)c1ccc2c(c1)C(C)(C)C(=O)N2C (centres undefined) | 843 s
CCCCN1C(=O)C(NC(=O)c2ccccc2OC)(C(F)(F)F)C2=C1CC(C)(C)CC2=O (centres undefined) | 1080 s
COc1ccc(-c2nc(CN3C(=O)C(O)(c4ccc(C)cc4)c4ccccc43)c(C)o2)cc1 (centres undefined) | 1090 s
CN1CCN(CCNC(=O)Cn2c(=O)c3cccn3c3ccc(F)cc32)CC1 | 578 s
CCn1nccc1C(=O)Nc1ccc2sc(C)nc2c1 | 697 s
CCOc1ccc(-c2nc(CN3CCN(C(=O)NC4CCCCC4)CC3)c(C)o2)cc1 | 718 s
CC1(C)Cc2cccc(OCC(=O)NCc3n[nH]c(=O)c4ccccc34)c2O1 | 661 s
COc1ccc(CNC(=O)Nc2cc3c(cc2N2CCOCC2)n(C)c(=O)n3C)cc1 | 694 s
O=C(Nc1cccc(-c2ccc(N3CCOCC3)nn2)c1)Nc1ccc(F)cc1F | 723 s
O=C(CCC1CCCC1)Nc1ccc(-c2nnc3n2CCCC3)cc1 | 765 s
COC(=O)c1cc(S(=O)(=O)N2CCCC2C(=O)NCc2ccccc2C)cn1C (centres undefined) | 846 s
COc1ccc(N2CCN(S(=O)(=O)c3cc(-c4cnn5c(C)cc(C)nc45)ccc3C)CC2)cc1 | 1170 s
CCOc1ccccc1NS(=O)(=O)c1ccc(-c2c(C)noc2C)cc1 | 978 s
Cc1ccccc1-c1nnc(COc2ccc(NC(=O)Cc3cccs3)cc2)o1 | 976 s
Cc1ccc(C(=O)N2CCc3sc(C(=O)N4CCC5(CC4)OCCO5)cc3C2)cc1 | 793 s
O=C1c2ccccc2C(=O)c2oc(-c3ccccc3)nc21 | 1150 s

SMILES | RP-LC retention time
Cc1cc(C(=O)N2CC(n3cc(COc4ccc(F)cc4)nn3)C2)n(C)n1 | 637 s
Cc1nc(Cn2cccc2C(=O)Nc2ccc(Cl)cc2)no1 | 899 s
O=C1CC(c2noc(-c3cccc(F)c3)n2)CN1c1ccc(Cl)cc1 (centres undefined) | 1080 s
Cc1cc(C)cc(N2C(=O)CN(S(C)(=O)=O)CC2(C)C(=O)NCc2ccc(F)cc2)c1 (centres undefined) | 827 s
COc1ccccc1CCC(=O)N1CCc2cc(-c3csc(C)n3)ccc21 | 1090 s
c1cc(N2CCCCCC2)ncc1-c1noc(CN2CCCC2)n1 | 586 s
O=C(C1CCCO1)N1CCC(c2cnn(-c3cccc(F)c3)c2)CC1 (centres undefined) | 792 s
Cc1ccc2oc(-c3noc(C(=O)NCc4cccs4)n3)c(C)c2c1 | 1150 s
COC(=O)c1ccc(NC(=O)CSc2ncnc3c2nnn3C)cc1 | 683 s
CCC(=O)N1CCN(c2nc(C)cc(N3CCOCC3)n2)CC1 | 578 s
CCN(CC)c1nc(NC)nc(-n2cnc(SC)n2)n1 | 897 s
COc1ccc(-c2nc(-c3ccc(-n4ccnc4)nc3)no2)c(OC)c1 | 698 s
O=C(C(=O)N1CCc2ccccc2C1)c1c[nH]c2ccccc12 | 836 s
Cn1cc(-c2ccccc2)cc1C(=O)NCc1ccc(N2CCOCC2)cc1 | 892 s
O=C(NCC1CCCO1)c1nc(-c2ccnc(N3CCCCCC3)c2)no1 (centres undefined) | 641 s
CCOC(=O)CC1(NC(=O)N2CCCn3nc(-c4ccncc4)cc3C2)CCCCC1 | 595 s
O=C(NC1CCCCCC1)c1ccc(CN2CCN(Cc3ccccc3)C(=O)C2=O)cc1 | 812 s
Cc1ccc(S(=O)(=O)c2cnc(N3CCN(c4cccc(Cl)c4)CC3)nc2N)cc1C | 1260 s
O=C(NCc1cccs1)c1coc(NC(=O)C2CC2)n1 | 614 s
CCOc1ccc(CNC(=O)C2CCN(S(=O)(=O)c3cn(CC)cn3)CC2)cc1OC | 676 s
